Measurements published in ChEMBL document CHEMBL1146905, “Synthesis and evaluation of phenoxy acetic acid derivatives as [corrected] anti-mycobacterial agents” (2006).
Converted amounts (≈) assume the structure as drawn.

Tests used:
Type in all cases: functional
[1] = system: Mycobacterium tuberculosis; assay: Antimycobacterial activity against INH-resistant Mycobacterium tuberculosis by agar dilution method at 6.25 ug/ml
[2] = system: Mycobacterium tuberculosis; assay: Antimycobacterial activity against INH-resistant Mycobacterium tuberculosis by agar dilution method
[3] = system: Mycobacterium tuberculosis; assay: Antimycobacterial activity against INH-resistant Mycobacterium tuberculosis by agar dilution method above 6.25 ug/ml

Structure (SMILES)	inhibition at 6.25 µg/mL [1] [%]	MIC [2] [µg/mL]	Inhibition [3] [%]
COc1cc(C2=NN(C(=O)COc3ccccc3)C(Cc3ccccc3)C2)c(C)cc1OCC(=O)O (stereo not drawn)	92	> 6.25	
COc1cc(C2=NN(C(=O)c3ccccc3)C3CCCC23)c(C)cc1OCC(=O)O (stereo not drawn)		> 6.25	42
COc1cc(C2=NN(C(=O)COc3cccc4ccccc34)C3CCCC23)c(C)cc1OCC(=O)O (stereo not drawn)		> 6.25	50
COc1cc(C2=NN(C(=O)COc3ccccc3)C3CCCC23)c(C)cc1OCC(=O)O (stereo not drawn)		> 6.25	85
COc1cc(C2=NN(C(=O)Cc3ccccc3)C3CCCC23)c(C)cc1OCC(=O)O (stereo not drawn)		> 6.25	24
COc1cc(C2=NN(C(=O)c3ccccc3)C(Cc3ccccc3)C2)c(C)cc1OCC(=O)O (stereo not drawn)		> 6.25	18
COc1cc(C2=NN(C(=O)COc3ccc4ccccc4c3)C(Cc3ccccc3)C2)c(C)cc1OCC(=O)O (stereo not drawn)	90	0.94 (≈ 1.75 µM)	
COc1cc(C2=NN(C(=O)c3ccc([N+](=O)[O-])cc3)C3CCCC23)c(C)cc1OCC(=O)O (stereo not drawn)		> 6.25	30
NNC(=O)c1ccncc1 [ISONIAZID]	90	1.56 (≈ 11.4 µM)	
COc1cc(C2=NN(C(=O)COc3ccc4ccccc4c3)C(c3ccc(O)cc3)C2)c(C)cc1OCC(=O)O (stereo not drawn)	99	0.7 (≈ 1.29 µM)	
COc1cc(C2=NN(C(=O)COc3cccc4ccccc34)C(c3ccc(O)cc3)C2)c(C)cc1OCC(=O)O (stereo not drawn)		> 6.25	58
COc1cc(C2=NN(C(=O)COc3cccc4ccccc34)C(Cc3ccccc3)C2)c(C)cc1OCC(=O)O (stereo not drawn)		> 6.25	20
COc1cc(C2=NN(C(=O)Cc3ccccc3)C(c3ccc(O)cc3)C2)c(C)cc1OCC(=O)O (stereo not drawn)		> 6.25	22
COc1cc(C2=NN(C(=O)COc3ccc4ccccc4c3)C3CCCC23)c(C)cc1OCC(=O)O (stereo not drawn)		6.25 (≈ 12.8 µM)	94
COc1cc(C2=NN(C(=O)COc3ccccc3)C(c3ccc(O)cc3)C2)c(C)cc1OCC(=O)O (stereo not drawn)	99	0.64 (≈ 1.3 µM)	
COc1cc(C2=NN(C(=O)c3ccc([N+](=O)[O-])cc3)C(c3ccc(O)cc3)C2)c(C)cc1OCC(=O)O (stereo not drawn)		6.25 (≈ 12.4 µM)	70
COc1cc(C2=NN(C(=O)Cc3ccccc3)C(Cc3ccccc3)C2)c(C)cc1OCC(=O)O (stereo not drawn)		> 6.25	34
COc1cc(C2=NN(C(=O)c3ccccc3)C(c3ccc(O)cc3)C2)c(C)cc1OCC(=O)O (stereo not drawn)		> 6.25	72
COc1cc(C2=NN(C(=O)c3ccc([N+](=O)[O-])cc3)C(Cc3ccccc3)C2)c(C)cc1OCC(=O)O (stereo not drawn)		> 6.25	50
